# Measured values: ChEMBL document CHEMBL5385926, “Production of Kinanthraquinone D with Antimalarial Activity by Heterologous Gene Expression and Biotransformation in Streptomyces lividans TK23” (J Nat Prod, 2024)
# Where “and” joins values, the source holds several entries; their conditions need not be identical. Equal values may be shown once.
# Legend:
# [1] = Cytotoxicity against human HeLa cells; type: toxicity, cell-based
# Plasmodium falciparum = test: Antimalarial activity against Plasmodium falciparum 3D7; type: functional, organism-based
# Staphylococcus aureus = test: Antimicrobial activity against Staphylococcus aureus 209; type: functional, organism-based
# [2] = Cytotoxicity against human HL-60 cells; type: toxicity, cell-based
IC50 (Plasmodium falciparum),IC50 (Staphylococcus aureus),Structure (SMILES),IC50 [1],IC50 [2]
1.21 µM and 0.5 µg/mL,> 30 µM and > 11.4 µg/mL,COc1ccc2c(c1OC)C(=O)c1ccc(/C=C(/C)CC(N)=O)c(O)c1C2=O,> 30 µM and > 11.4 µg/mL,> 30 µM and > 11.4 µg/mL
15 µM and 5.7 µg/mL,18 µM and 6.9 µg/mL,COc1ccc2c(c1OC)C(=O)c1ccc(/C=C(/C)CC(=O)O)c(O)c1C2=O,> 30 µM and > 11.5 µg/mL,> 30 µM and > 11.5 µg/mL
> 30 µM and > 13.2 µg/mL,> 30 µM and > 13.2 µg/mL,COc1ccc2c(c1OC)C(=O)c1ccc(/C=C(/C)CC(=O)NCC(=O)O)c(O)c1C2=O,> 30 µM and > 13.2 µg/mL,> 30 µM and > 13.2 µg/mL
910 nM and 0.4 µg/mL,> 30 µM and > 11.9 µg/mL,COc1ccc2c(c1OC)C(=O)c1c(O)cc(/C=C(/C)CC(N)=O)c(O)c1C2=O,> 30 µM and > 11.9 µg/mL,> 30 µM and > 11.9 µg/mL
